How the values were obtained:
rat pancreatic islets = assay: Insulin release from rat pancreatic islets; assay type: cell-based; conditions: 100 μM; 5.5 mM glucose external; from 22.5±1.2
Method: With 5.5 mM glucose in the external solution, basal insulin secretion was measured. […] Bath application of 100 μM THB increased insulin secretion from 22.5±1.2 to 39.4±1.5 pg/islet/min (FIG. 5; P<0.01; 6 cells) and 100 μM Ipt increased insulin secretion from 22.5±1.2 to 34.5±1.8 pg/islet/min (FIG. 11; P<0.05; 7 cells).

Kir6.2SUR1 KATP channels = target: T1, Kir6.2SUR1 KATP channels (Homo sapiens, UniProt Q09428+Q14654); assay: Patch-clamp cell attached single-channel recording of transfected Kir6.2SUR1 channels in HEK-293 cells; assay type: cell-based
T1 construct: expressed in transfected cells; host or cells: HEK-293
Method: In β-cells, the dominant subtype of KATP is the Kir 6.2SUR1 subtype, as earlier described. Cells transiently transfected with the KATP Kir 6.2SUR1 channel subtype were evaluated for membrane potential and action potential firing using cell-attached recording in the presence or absence of 100 μm THB (FIG. 8A).
To further determine the effects of THB and Ipt on pancreatic β-cell-type KATP channels, the inventor examined the effects of THB or Ipt on the transfected Kir6.2SUR1 KATP channels in HEK-293 cells.

[1] = system: D2 receptor and dopamine-opened K+ channels; assay: Dopamine-induced membrane potential hyperpolarization in dissociated SNc DA neurons; assay type: cell-based, rat
Method: All experiments were performed at room temperature (22±1° C.).

SNc DA neurons = assay: Perforated patch current-clamp recording of membrane potential and firing of dissociated SNc DA neurons, substance applied alone; assay type: cell-based, rat
Method: The protocol for preparation of single neurons from the rat SNc was approved by the Institutional Animal Care and Use Committee of the Barrow Neurological Institute. Single DA neurons were acutely dissociated from the SNc of 2-3-week-old Wistar rats following the protocol as previously described. Briefly, rats were anesthetized with isoflurane, and brain tissue was rapidly removed and immersed in cold (2-4° C.) dissection solution which contained: 136.7 mM NaCl, 5 mM KCl, 0.1 mM Na2HPO4, 0.2 mM KH2PO4, 9.84 mM HEPES, 16.6 mM D-glucose, 21.9 mM sucrose, pH 7.3, 330 mOsm, oxygenated with 100% O2 [8]. Three 400-μm coronal slices containing the SNc were cut using a vibrotome (Vibroslice 725M, WPI, Sarasota, Fla.). After cutting, slices were continuously bubbled with 95% O2-5% CO2 at room temperature (22±1° C.) for at least one hour in artificial cerebrospinal fluid (ACSF), which contained: 124 mM NaCl, 5 mM KCl, 24 mM NaHCO3, 1.3 mM MgSO4, 1.2 mM KH2PO4, 2.4 mM CaCl2, and 10 mM glucose, pH 7.4. Thereafter, slices were treated with pronase (1 mg per 6 ml) at 31° C. for 30 minutes in ACSF. The SNc was identified in a coronal slice using a stereo microscope with reference to the rat brain atlas, and was micro-punched out from slices using a well-polished needle. One punched piece was then transferred to a 35-mm culture dish filled with well-oxygenated standard extracellular solution, which contained: 150 mM NaCl, 5 mM KCl, 1 mM MgCl2, 2 mM CaCl2, 10 mM glucose 10, and 10 mM HEPES, pH 7.4 (with Tris-base). The punched piece was then dissociated mechanically using a fire-polished micro-Pasteur pipette under an inverted microscope (Olympus IX-70, Lake Success, N.Y.). The separated cells adhered to the bottom of the culture dish within 30 minutes. In the present study, we used only DA neurons that maintained their original morphological features of polygonal, large or medium somata with 2-4 thick primary dendritic processes were used.
Perforated patch whole-cell recording techniques were employed as previously described. Pipettes (3-5 MΩ) used for perforated patch recording were filled with intracellular recording solution containing 140 mM potassium gluconate, 10 mM KCl, 5 mM MgCl2, and 10 mM HEPES, pH 7.2 (with Tris-OH). The amphotericin B was freshly prepared to 200-240 μg/ml from a 40 mg/ml in DMSO stock. The liquid junction potential was 14 mV calculated using Clamplex 9.2 (Axon Instruments, Foster City, Calif.) and corrections were made for junction potentials post-hoc. After tight seal (>2 GΩ) formation, it usually took about 5-20 min to convert to perforated patch mode, and an access resistance of 20-60 MΩ was accepted to start the experiments. Series resistance was not compensated in this study. The data were filtered at 2 kHz, acquired at 10 kHz and digitized on-line (Digidata 1322 series A/D board, Axon Instruments, Foster City, Calif.). […] Drug application was performed using a computer-controlled “U-tube” system as previously described. All experiments were performed at room temperature (22±1° C.). To enable identification of single, dissociated SNc neurons after a patch-clamp recording session, the recording pipette was filled with a fluorescent dye (lucifer yellow CH, Sigma Chemical Co., St. Louis, Mo., 1.0 mg/ml in the recording electrode) in some experiments. After conversion from the perforated patch to the conventional whole-cell recording mode, the dye was ejected into the cytoplasm by a pulse (200 ms, 0.5 Hz) of hyperpolarizing current (1.0 nA) for 3 min. Labeled cells were visualized using epifluorescence microscopy. […]

T1 sequence (Q14654 whole entry): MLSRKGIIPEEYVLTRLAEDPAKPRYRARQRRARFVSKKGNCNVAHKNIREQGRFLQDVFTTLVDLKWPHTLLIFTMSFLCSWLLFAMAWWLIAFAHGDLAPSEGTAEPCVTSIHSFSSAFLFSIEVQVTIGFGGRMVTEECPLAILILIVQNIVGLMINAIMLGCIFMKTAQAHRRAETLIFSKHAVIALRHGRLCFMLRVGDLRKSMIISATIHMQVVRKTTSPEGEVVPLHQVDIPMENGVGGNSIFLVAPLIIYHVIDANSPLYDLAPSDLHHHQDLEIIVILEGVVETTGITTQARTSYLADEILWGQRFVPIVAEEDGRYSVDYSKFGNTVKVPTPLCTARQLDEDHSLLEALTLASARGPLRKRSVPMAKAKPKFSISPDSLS
T1 sequence (Q09428 whole entry): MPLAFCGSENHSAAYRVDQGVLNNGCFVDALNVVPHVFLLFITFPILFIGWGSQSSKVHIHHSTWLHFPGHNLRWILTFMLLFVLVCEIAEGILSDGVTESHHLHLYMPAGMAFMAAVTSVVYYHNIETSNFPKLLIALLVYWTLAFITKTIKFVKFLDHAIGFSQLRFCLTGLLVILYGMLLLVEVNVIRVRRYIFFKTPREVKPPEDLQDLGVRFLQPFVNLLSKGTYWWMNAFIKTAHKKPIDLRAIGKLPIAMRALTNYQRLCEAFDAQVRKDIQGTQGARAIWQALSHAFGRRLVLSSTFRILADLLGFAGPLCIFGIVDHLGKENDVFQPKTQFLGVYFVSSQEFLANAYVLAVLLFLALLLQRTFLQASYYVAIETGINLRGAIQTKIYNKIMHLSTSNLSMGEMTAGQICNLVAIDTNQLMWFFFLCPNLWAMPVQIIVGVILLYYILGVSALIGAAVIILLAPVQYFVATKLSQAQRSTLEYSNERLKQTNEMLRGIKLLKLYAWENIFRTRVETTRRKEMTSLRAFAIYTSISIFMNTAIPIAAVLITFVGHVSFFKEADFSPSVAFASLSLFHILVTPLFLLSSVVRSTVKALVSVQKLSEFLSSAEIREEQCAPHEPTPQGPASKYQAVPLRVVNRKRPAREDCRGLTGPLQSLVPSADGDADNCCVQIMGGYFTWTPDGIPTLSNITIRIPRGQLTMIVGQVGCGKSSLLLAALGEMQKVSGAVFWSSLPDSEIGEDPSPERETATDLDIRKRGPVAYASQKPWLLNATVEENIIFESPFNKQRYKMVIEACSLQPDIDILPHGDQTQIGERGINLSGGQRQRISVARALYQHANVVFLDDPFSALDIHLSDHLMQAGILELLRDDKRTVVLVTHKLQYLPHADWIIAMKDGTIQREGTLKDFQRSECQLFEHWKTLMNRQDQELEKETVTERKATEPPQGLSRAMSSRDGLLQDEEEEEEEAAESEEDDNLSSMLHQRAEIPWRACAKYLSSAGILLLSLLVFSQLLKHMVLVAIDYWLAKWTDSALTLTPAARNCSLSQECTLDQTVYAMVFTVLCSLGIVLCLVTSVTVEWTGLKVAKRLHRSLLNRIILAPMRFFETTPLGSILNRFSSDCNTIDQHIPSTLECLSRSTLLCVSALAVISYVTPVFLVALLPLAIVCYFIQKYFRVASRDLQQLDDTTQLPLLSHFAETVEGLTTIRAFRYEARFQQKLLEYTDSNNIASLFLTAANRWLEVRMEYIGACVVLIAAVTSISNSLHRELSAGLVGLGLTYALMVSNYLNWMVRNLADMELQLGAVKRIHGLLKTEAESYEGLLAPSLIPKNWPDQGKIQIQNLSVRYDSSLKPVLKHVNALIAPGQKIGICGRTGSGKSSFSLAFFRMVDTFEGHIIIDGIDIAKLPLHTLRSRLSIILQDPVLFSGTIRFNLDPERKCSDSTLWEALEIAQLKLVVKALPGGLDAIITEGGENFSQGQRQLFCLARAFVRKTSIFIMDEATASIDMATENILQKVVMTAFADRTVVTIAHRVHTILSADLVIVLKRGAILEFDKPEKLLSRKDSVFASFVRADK

Which “insulin secretion after bath application” value (rat pancreatic islets) does the source give for `COc1ccc2c(c1OC)CN1CCc3cc4c(cc3C1C2)OCO4` (stereo not shown) [THB, tetrahydroberberine] here?
The value was 39.4±1.5 pg/islet/min.

And the “normalized NPo value” (Kir6.2SUR1 KATP channels; 100 μM, control as 1, THB 6 patches, Ipt 8 patches)?
Its value is 0.51±0.05.

What about the “change in channel activity NP0 compared to control” value (Kir6.2SUR1 KATP channels; 100 μm THB, three experiments, FIG. 8B) of the same compound?
The value was 50%.

What about the “membrane potential after co-application of dopamine with substance” value ([1]; 100 μM THB (from −45.6±1.0, n=7), tolbutamide (from −45.3±2.3, n=4)) of the same compound?
The value was −38.6±1.2 mV.

And the “altered membrane potential on co-application with dopamine” value ([1]; difference THB vs tolbutamide p>0.05)?
The value was 7.0±0.9 mV.

What about the “firing rate of spontaneous action potentials after exposure” value (SNc DA neurons; 100 μM bath-perfusion, before exposure 1.4 Hz, n=7, p<0.05) of the same compound?
Its value is 2.2 Hz.

What about the “membrane potential after exposure to substance alone” value (SNc DA neurons; 100 μM, before: THB −46.5±0.9 (n=7), tolbutamide −44.4±1.6 (n=5)) of the same compound?
The value was −41.3±1.9 mV.

— patent publication US11065244B2, “Methods of use of tetrahydroberberine (THB)” (DIGNITY HEALTH, priority 2010, dated 2021)
